Assays:
HMOX1 [1] = assay: RT-qPCR assay of HMOX1 expression in A673 cells; assay type: cell-based; details: A673, 1 μM; for relative expression of HMOX1 in the absence of ferrostatin-1: four hours, relative to ACTB
Procedure: (§1) To confirm HMOX1 induction by the GPX4 inhibitors, an RT-qPCR assay was performed using three ferroptosis sensitive cancer cell lines: the fibrosarcoma cell line HT-1080, a Ewing's sarcoma cell line A673, and a renal clear cell carcinoma cell line 786-O. Briefly, cells were exposed to 1 μM ML162 or 1 μM RSL3 for 4 hours, RNA was isolated and an RT-qPCR assay was performed.
(§2) Briefly, HT-1080, A673, and 786-O cells were exposed to 1 μM ML162 or 1 μM RLS3 with or without 1 μM ferrostatin-1 for four hours, RNA was isolated and an RT-qPCR assay was performed to quantify HMOX1 expression. DMSO was used as a control exposure.

HMOX1 [2] = assay: RT-qPCR assay of HMOX1 expression in 786-O cells; assay type: cell-based; details: 1 μM; for relative expression of HMOX1 in the absence of ferrostatin-1: four hours, relative to ACTB
Procedure: as §1, §2

[3] = test system: lung fibroblast cell line IMR90; assay: nascent RNA sequencing of IMR90 cells exposed to GPX4 inhibitors; assay type: cell-based; details: IMR90, 1 μM, 1 hour, Pval 10^−3
Procedure: (§3) To assess the transcriptional response of a cell to inhibition of GPX4, we exposed two cell lines to two different chemical inhibitors of GPX4 (ML162 and RSL3; available from Sigma Aldrich and Apex Bio respectively) and examined the transcriptional responses using a nascent RNA sequencing protocol. Briefly, a fibrosarcoma cell line HT-1080 and a lung fibroblast cell line IMR90 were exposed to 1 μM ML162 or 1 μM RSL3 for 1 hour and the nascent RNA sequencing protocol was performed.

[4] = test system: fibrosarcoma cell line HT-1080; assay: nascent RNA sequencing of HT-1080 cells exposed to GPX4 inhibitors; assay type: cell-based; details: 1 hour; for number of genes with significant changes in gene transcription: 1 μM, HT-1080 compared with IMR90; for HMOX1 differential expression (nascent RNA sequencing): HT-1080, 1 μM, Pval<10^−2
Procedure: as §3

HMOX1 [5] = assay: RT-qPCR assay of HMOX1 expression in HT-1080 cells; assay type: cell-based; details: for relative expression of HMOX1 in the absence of ferrostatin-1: HT-1080, 1 μM, four hours; for effect of ferrostatin-1 on induction of HMOX1: HT-1080, sodium arsenite 80 μM, hemin 5 μM, RSL3 1 μM, with or without 1 μM ferrostatin-1, four hours, normalized to DMSO control
Procedure: as §1
To further validate induction of HMOX1 mRNA expression by GPX4 inhibition, RT-qPCR was performed using varying doses of the RSL3 inhibitor. Briefly, HT-1080 cells were exposed to 5 μM RSL3, 1 μM RSL3, and 0.2 μM RSL3 for four hours, RNA was isolated and an RT-qPCR assay was performed to quantify HMOX1 expression. DMSO was used as a control exposure.
as §2
Sodium arsenite and hemin are known to be inducers of general oxidative stress in cells. Briefly, HT-1080 cells were exposed to sodium arsenite (80 μM), hemin (5 μM), ML162 (1 μM), or RSL3 (1 μM) with or without 1 μM ferrostatin-1 for four hours, RNA was isolated and an RT-qPCR assay was performed to quantify HMOX1 expression. DMSO was used as a control exposure.

[6] = test system: breast cancer cell line (MCF7); assay: steady state RNA-seq of MCF7 cells after estradiol treatment; assay type: cell-based; details: MCF7, 100 nM estradiol, 15 minutes, pval 10^−3
Procedure: (§4) To assess the sensitivity and dynamic range of the nascent RNA sequencing assay in gauging a cellular response to a stimulus, the performance of a steady state RNA-seq protocol was compared against a nascent RNA sequencing protocol using a breast cancer cell line (MCF7) model and estrogen treatment to elicit a well characterized, widespread transcriptional response driven by ERα and ERβ transcription factors. Briefly, cell cultures were treated with 100 nM estradiol for 15 minutes or left untreated (i.e., untreated controls) and a steady state RNA-seq protocol or the nascent RNA sequencing assay described herein above was performed.

[7] = test system: breast cancer cell line (MCF7); assay: nascent RNA sequencing (SNAP-seq) of MCF7 cells after estradiol treatment; assay type: cell-based; details: MCF7, 100 nM estradiol, 15 minutes, significance threshold pval 10^−3
Procedure: as §4

786-O = details: cells treated with small molecules that induce lipid peroxidation; cited from earlier work
HT-1080 = details: HT-1080, cells treated with small molecules that induce lipid peroxidation; cited from earlier work
A673 = details: A673, cells treated with small molecules that induce lipid peroxidation; cited from earlier work
[8] = 4 hours, normalized to DMSO control, n=2

| Compound | relative expression of HMOX1 in the absence of ferrostatin-1 (HMOX1 [1]) | relative expression of HMOX1 in the absence of ferrostatin-1 (HMOX1 [2]) | HMOX1 differential expression (nascent RNA sequencing) [3] | number of genes with significant changes in gene transcription [4] | HMOX1 differential expression (nascent RNA sequencing) [4] | relative expression of HMOX1 in the absence of ferrostatin-1 (HMOX1 [5]; relative to ACTB) | effect of ferrostatin-1 on induction of HMOX1 (HMOX1 [5]) | other results |
| --- | --- | --- | --- | --- | --- | --- | --- | --- |
| COC(=O)c1ccc([C@@H]2c3[nH]c4ccccc4c3C[C@@H](C(=O)OC)N2C(=O)CCl)cc1 [RSL3] | HMOX1 expression was observed | HMOX1 expression was observed | strongly differentially expressed | greater in the HT-1080 cell line relative to the IMR90 cell line | strongly differentially expressed | HMOX1 expression was observed | dependent on lipid peroxidation |  |
| C[C@]12CC[C@@H]3c4ccc(O)cc4CC[C@H]3[C@@H]1CC[C@@H]2O [estradiol] |  |  |  |  |  |  |  | number of differentially expressed genes (estradiol/untreated), steady-state RNA-seq [6]: 8; number of differentially expressed genes (estradiol/untreated), nascent RNA sequencing (SNAP-seq) [7]: 762 |
| O=[As]O [sodium arsenite] |  |  |  |  |  |  | not affected by the presence of ferrostatin-1 |  |
| hemin |  |  |  |  |  |  | not affected by the presence of ferrostatin-1 |  |
| CCOC(=O)c1ccc(NC2CCCCC2)c(N)c1 [ferrostatin-1] |  |  |  |  |  |  |  | rescue of cellular viability (ferroptosis-protective effect) (786-O): ferroptosis-protective effect has been observed; rescue of cellular viability (ferroptosis-protective effect) (HT-1080): ferroptosis-protective effect has been observed; rescue of cellular viability (ferroptosis-protective effect) (A673): ferroptosis-protective effect has been observed |
| COc1ccc(N(C(=O)CCl)C(C(=O)NCCc2ccccc2)c2cccs2)cc1Cl (stereo not drawn) [ML162] | HMOX1 expression was observed | HMOX1 expression was observed | strongly differentially expressed | greater in the HT-1080 cell line relative to the IMR90 cell line | strongly differentially expressed | HMOX1 expression was observed |  | fold induction for HMOX1 mRNA (HMOX1 [1]; [8]): induced; fold induction for HMOX1 mRNA (HMOX1 [2]; [8]): induced; fold induction for HMOX1 mRNA (HMOX1 [5]; 1 µM): induced; relative expression of HMOX1 in the presence of ferrostatin-1 (HMOX1 [5]; HT-1080, 1 μM with 1 μM ferrostatin-1, four hours, relative to ACTB): induced HMOX1 even in the presence of ferrostatin-1 |
